Converted amounts (≈) assume the structure as drawn. “And” between values parts separate entries of the source, which are not always exact repeats. Equal values may be shown once. Values belong to the compound of their own block, whether it stands above or below them.
Experiments:
Assay in all cases: ≥ marks a high value that may be exact or a test limit, other limits are often not marked, values filed in µg/mL are converted to µM
[1] = tested on: Pseudomonas aeruginosa ATCC 27853
[2] = tested on: Staphylococcus aureus ATCC 25923
[3] = tested on: Streptococcus agalactiae ATCC 12386
[4] = tested on: Staphylococcus aureus ATCC 29213
[5] = tested on: Escherichia coli ATCC 25922
[6] = tested on: Enterococcus faecalis ATCC 29212
[7] = tested on: Klebsiella pneumoniae ATCC 13883
[8] = tested on: Klebsiella pneumoniae 08040724
[9] = tested on: Bacillus licheniformis X39
[10] = tested on: Rhodococcus rhodochrous X15
Serratia rubidaea X01 = tested on: Serratia rubidaea X01
[11] = tested on: Enterococcus faecalis 981
[12] = tested on: Psychrobacter faecalis X29
[13] = tested on: Staphylococcus carnosus KHS
Yersinia pestis KIM pYV = tested on: Yersinia pestis KIM pYV
Staphylococcus aureus = tested on: Staphylococcus aureus
[14] = tested on: Staphylococcus aureus ATCC 43300
[15] = tested on: Staphylococcus aureus ΔmprFpRBsyn
[16] = tested on: Bordetella bronchiseptica CUN 11844-99
[17] = tested on: Staphylococcus aureus ΔmprF
[18] = tested on: Pseudomonas aeruginosa CUN 4158-02
[19] = tested on: Brucella abortus 9.49 (per-)
[20] = tested on: Acinetobacter baumannii ATCC 19606
[21] = tested on: Salmonella typhimurium KCTC 1926
[22] = tested on: Bacillus subtilis KCTC 3068
[23] = tested on: Pseudomonas aeruginosa H1001
[24] = tested on: Escherichia coli KCTC 1682
[25] = tested on: Staphylococcus epidermidis KCTC 1917
[26] = tested on: Pseudomonas aeruginosa KCTC 1637
[27] = tested on: Staphylococcus aureus KCTC 1621
[28] = tested on: Penicillium digitatum PHI-26
[29] = tested on: Klebsiella pneumoniae ATCC 43816
[30] = tested on: Escherichia coli ATCC 8739
[31] = tested on: Bacillus subtilis ATCC 6633
[32] = tested on: Staphylococcus aureus NCTC 12493
[33] = tested on: Pseudomonas aeruginosa CMCCB 10104
[34] = tested on: Pseudomonas aeruginosa ATCC 9027
[35] = tested on: Staphylococcus aureus NCTC 10788
[36] = tested on: Candida albicans ATCC 2002
[37] = tested on: Enterococcus faecium NTCC 12697
[38] = tested on: Staphylococcus aureus ATCC 6538

MIC [1]: 20 µM (≈ 50 µg/mL)
MIC [2]: 10 µM (≈ 25 µg/mL)
MIC [3]: 0.401 µM (≈ 1 µg/mL)
MIC [4]: 4.01 µM (≈ 10 µg/mL)
MIC [5]: 2 µM (≈ 5 µg/mL)
MIC [6]: 10 µM (≈ 25 µg/mL)
MIC [7]: 10 µM (≈ 25 µg/mL)
SMILES: CC[C@H](C)[C@H](NC(=O)CN)C(=O)NCC(=O)N[C@@H](CCCCN)C(=O)N[C@@H](Cc1ccccc1)C(=O)N[C@@H](CC(C)C)C(=O)N[C@@H](Cc1cnc[nH]1)C(=O)N[C@@H](CO)C(=O)N[C@@H](C)C(=O)N[C@@H](CCCCN)C(=O)N[C@@H](CCCCN)C(=O)N[C@@H](Cc1ccccc1)C(=O)N[C@@H](C)C(=O)N[C@@H](CCCCN)C(=O)N[C@@H](C)C(=O)N[C@@H](Cc1ccccc1)C(=O)N[C@H](C(=O)N[C@@H](C)C(=O)N[C@@H](CCC(=O)O)C(=O)N[C@H](C(=O)N[C@@H](CCSC)C(=O)N[C@@H](CC(N)=O)C(=O)N[C@@H](CO)C(N)=O)[C@@H](C)CC)C(C)C [GIGKFLHSAKKFAKAFVAEIMNS]

MIC [2]: 150 µM (≈ 496 µg/mL)
MIC [8]: ≥ 150 µM
MIC [5]: 150 µM (≈ 496 µg/mL)
MIC [9]: 19 µM (≈ 62.8 µg/mL)
MIC [10]: 2.3 µM (≈ 7.6 µg/mL)
MIC (Serratia rubidaea X01): 4.6 µM (≈ 15.2 µg/mL)
MIC [11]: ≥ 75 µM
MIC [12]: 4.5 µM (≈ 14.9 µg/mL)
MIC [13]: 19 µM (≈ 62.8 µg/mL)
SMILES: CC[C@H](C)[C@@H]1NC(=O)CNC(=O)[C@@H](NC(=O)[C@H](CCCN=C(N)N)NC(=O)[C@@H](NC(=O)[C@H](CCCCN)NC(=O)[C@H](CC(=O)O)NC(=O)[C@H](CC(C)C)NC(=O)[C@@H](NC(=O)[C@H](CC(N)=O)NC(=O)[C@@H](NC(=O)[C@H](C)NC(=O)[C@H](Cc2ccccc2)NC(=O)[C@H](CCCCN)NC(=O)[C@H](CCCCN)NC(=O)CNC(=O)[C@H](C)NC(=O)[C@H](CCC(=O)O)NC(=O)[C@H](CCCCN)NC(=O)[C@@H](NC(=O)[C@@H](NC(=O)[C@H](CC(N)=O)NC(=O)[C@H](Cc2c[nH]c3ccccc23)NC(=O)[C@H](CC(C)C)NC(=O)CN)[C@@H](C)O)[C@@H](C)CC)[C@@H](C)CC)C(C)C)[C@@H](C)CC)CSSC[C@@H](C(=O)N[C@@H](CCCCN)C(=O)N[C@H](C(=O)O)[C@@H](C)O)NC(=O)CNC(=O)CNC(=O)[C@H](C)NC1=O [GLWNTIKEAGKKFAINVLDKIRCGIAGGCKT]

Continued, compound first:

SMILES: CC[C@H](C)[C@H](NC(=O)[C@H](CCCN=C(N)N)NC(=O)[C@H](CCCN=C(N)N)NC(=O)[C@H](CC(C)C)NC(=O)[C@H](Cc1ccccc1)NC(=O)[C@@H](NC(=O)[C@H](CCCN=C(N)N)NC(=O)[C@H](CCSC)NC(=O)[C@@H](NC(=O)[C@H](CCCCN)NC(=O)[C@H](CCCCN)NC(=O)[C@H](CO)NC(=O)[C@@H](NC(=O)CNC(=O)[C@H](CCCN=C(N)N)NC(=O)[C@H](CC(C)C)NC(=O)[C@@H](NC(=O)[C@@H](N)CCCCN)[C@@H](C)CC)C(C)C)[C@@H](C)CC)[C@@H](C)O)C(=O)N[C@@H](CO)C(=O)N[C@@H](CCCCN)C(=O)N[C@@H](CC(=O)O)C(=O)N[C@H](C(=O)N[C@@H](CC(C)C)C(=O)N[C@H](C(=O)NCC(=O)N[C@@H](CCCCN)C(=O)N[C@@H](CCCCN)C(N)=O)[C@@H](C)O)[C@@H](C)CC [KILRGVSKKIMRTFLRRISKDILTGKK]
MIC (Yersinia pestis KIM pYV): 5.02 µM (≈ 16 µg/mL)
MIC (Staphylococcus aureus): 20.1 µM (≈ 64 µg/mL)
MIC [14]: 40.2 µM (≈ 128 µg/mL)
MIC [15]: 1.26 µM (≈ 4 µg/mL)
MIC [16]: 1.26 µM (≈ 4 µg/mL)
MIC [5]: 1.26 µM (≈ 4 µg/mL)
MIC [17]: 1.26 µM (≈ 4 µg/mL)
MIC [18]: 1.26 µM (≈ 4 µg/mL)
MIC [19]: 0.628 µM (≈ 2 µg/mL)
MIC [20]: 0.628 µM (≈ 2 µg/mL)

SMILES: CC[C@H](C)[C@H](N)C(=O)N[C@@H](CC(C)C)C(=O)N[C@@H](CCCCN)C(=O)N[C@@H](Cc1c[nH]c2ccccc12)C(=O)N[C@@H](CCCCN)C(=O)N[C@@H](Cc1c[nH]c2ccccc12)C(=O)N1CCC[C@H]1C(=O)N[C@@H](Cc1c[nH]c2ccccc12)C(=O)N[C@@H](Cc1c[nH]c2ccccc12)C(=O)N1CCC[C@H]1C(=O)N[C@@H](Cc1c[nH]c2ccccc12)C(=O)N[C@@H](CCCN=C(N)N)C(=O)N[C@@H](CCCN=C(N)N)C(N)=O [ILKWKWPWWPWRR]
MIC [21]: 5.16 µM (≈ 10 µg/mL)
MIC [22]: 2.58 µM (≈ 5 µg/mL)
MIC [23]: 5.16 µM (≈ 10 µg/mL)
MIC [24]: 5.16 µM (≈ 10 µg/mL)
MIC [25]: 5.16 µM (≈ 10 µg/mL)
MIC [26]: 10.3 µM (≈ 20 µg/mL)
MIC [27]: 2.58 µM (≈ 5 µg/mL)

SMILES: CC[C@H](C)[C@H](NC(=O)CN)C(=O)NCC(=O)N[C@@H](C)C(=O)N[C@H](C(=O)N[C@@H](CC(C)C)C(=O)N[C@H](C(=O)N[C@H](C(=O)N[C@@H](CC(C)C)C(=O)N[C@H](C(=O)N[C@H](C(=O)NCC(=O)N[C@@H](CC(C)C)C(=O)N1CCC[C@H]1C(=O)N[C@@H](C)C(=O)N[C@@H](CC(C)C)C(=O)N[C@H](C(=O)N[C@@H](CO)C(=O)N[C@@H](Cc1c[nH]c2ccccc12)C(=O)N[C@H](C(=O)N[C@@H](CCCCN)C(=O)N[C@@H](CCCN=C(N)N)C(=O)N[C@@H](CCCCN)C(=O)N[C@@H](CCCN=C(N)N)C(=O)N[C@@H](CCC(N)=O)C(=O)N[C@@H](CCC(N)=O)C(N)=O)[C@@H](C)CC)[C@@H](C)CC)[C@@H](C)O)[C@@H](C)O)C(C)C)[C@@H](C)CC)C(C)C [GIGAVLIVLTTGLPALISWIKRKRQQ]
MIC [28]: 8 µM and 15 µM

SMILES: CC[C@H](C)[C@@H]1NC(=O)[C@H](CCCCN)NC(=O)[C@@H](NC(=O)[C@H](CCCCN)NC(=O)[C@H](CC(C)C)NC(=O)[C@H](CCCCN)NC(=O)[C@H](CC(=O)O)NC(=O)[C@H](CC(C)C)NC(=O)[C@H](CC(C)C)NC(=O)[C@@H](NC(=O)[C@H](C)NC(=O)[C@H](C)NC(=O)[C@@H](NC(=O)[C@H](CC(N)=O)NC(=O)[C@H](CCCCN)NC(=O)[C@H](C)NC(=O)[C@@H](NC(=O)[C@H](CC(N)=O)NC(=O)[C@H](CCCCN)NC(=O)[C@H](C)NC(=O)[C@@H](NC(=O)[C@H](CC(=O)O)NC(=O)[C@H](CCSC)NC(=O)[C@H](Cc2ccccc2)NC(=O)CN)[C@@H](C)O)C(C)C)C(C)C)[C@@H](C)O)CSSC[C@@H](C(=O)O)NC(=O)CNC(=O)CNC(=O)[C@H]([C@@H](C)O)NC1=O [GFMDTAKNVAKNVAATLLDKLKCKITGGC]
MIC [29]: ≥ 128 µM
MIC [30]: ≥ 100 µM
MIC [31]: 12.5 µM (≈ 37.6 µg/mL)
MIC [2]: 2.42 µM (≈ 7.3 µg/mL)
MIC [14]: > 100 µM
MIC [5]: 4.81 µM (≈ 14.5 µg/mL)
MIC [32]: ≥ 256 µM
MIC [33]: 4.81 µM (≈ 14.5 µg/mL)
MIC [34]: ≥ 128 µM
MIC [35]: ≥ 32 µM
MIC [36]: 4.81 µM (≈ 14.5 µg/mL)
MIC [37]: ≥ 256 µM
MIC [38]: 25 µM (≈ 75.2 µg/mL)

From DBAASP
